What was measured:
SW480 cells [1] = assay: Soft agar colony growth assay, SW480; format: cell-based, human; conditions: SW480, 10 days; AZD1480 1 μM, S3I-201 50 μM, IL11 10 ng/ml
Procedure: e Photograph of SW480 and SW480^APC CRC cells grown for 10 days under colony forming conditions in soft agar in the presence of vehicle or 1 μM of Jak2 inhibitor AZD1480 (Jak2i) (Scale bar=200 μm)
f Colony forming capacity of an isogenic pair of SW480 cells scored 10 days after the indicated treatment. (*p≦0.04; triplicate cultures and repeated).
SW480 and SW480^APC cells (Faux et al., 2004) were seeded in 2 ml of RPMI media supplemented with 10% FBS and 1% penicillin/streptomycin in 35 mm culture dishes at a density of 2×10^5 cells per dish. Three days later cultures were exposed to AZD1480 (1 μM) for 15 min. Co-immunofluorescence was then performed with antibodies to rabbit phospho-Stat3 (Tyr705, Santa Cruz #9134s, 1:200 dilution) and mouse β-catenin (Transduction Laboratories, 1:400). Colony formation assays of SW480 cells in soft agar were performed as described (Faux et al., 2004) in the presence of either AZD1480, (1 μM), the Stat3 inhibitor S3I-201 (Biovision, 50 μM) or recombinant human IL11 (Genetics Institute, 10 ng/ml). All experiments were performed in triplicates and repeated at least once. Vehicle was methylcellulose.

intestinal tumours = assay: Intestinal tumour burden after tamoxifen-induced conditional Apc deletion in Lgr5CreERT2;Apcfl/fl mice; format: in vivo; conditions: tamoxifen-treated Lgr5^CreERT2;Apc^fl/fl mice, prophylactic daily AZD1480 30 mg/kg, 5 weeks
Procedure: e Quantification of intestinal tumour burden of mice using the Metamorph analysis tool (Barker et al., 2009) after tamoxifen-induced conditional Apc deletion in adult Lgr5^CreERT2;Apc^fl/fl mice that also received daily administration of AZD1480 (30 mg/kg) or vehicle during this time. (*p≦0.04; n=3 mice).
d Intestinal tumour burden 5 weeks after tamoxifen-induced conditional Apc deletion in adult Lgr5^CreERT2;Apc^fl/fl mice that also received daily administration of AZD1480 (Jak2i; 30 mg/kg) or vehicle during this time. Higher magnifications of the boxed areas are provided and arrows point to tubular adenomas whilst arrowheads point to micro-adenomas. Scale bars=1 mm.
10 week old Lgr5CreERT2;Apcfl/fl mice received four i.p injections with tamoxifen (10 mg/ml; 300 ul, 200 ul, 200 ul, 200 ul) over four consecutive days. Three days after the last injection, mice received daily oral gavages with either vehicle (tap water, pH 2.0) or CYT387 (30 mg/kg) for four weeks. Regime was 5 days treatment followed by 2 days off treatment.
Hematoxilin and Eosin-stained sections were scanned using an Aperio ScanScope XT (Aperio, USA) pathology slide scanner with a 20x PlanApo NA0.6 objective and areas of interest were extracted using Aperio ImageScope software v11.1.2.760. The area of individual tumors was outlined using MetaMorph v7.7.7 and standardized against the entire length of the colon section as described (Barker et al., 2009).

SW480 cells [2] = assay: SW480 tumor xenografts; format: in vivo, human
Procedure: a Tumour xenograft burden in BALB/c nude mice injected s.c. with SW480 cells in matrigel and receiving daily gavage with AZD1480 (30 mg/kg) or vehicle starting on the 5th day after cell inoculation. (*p≦0.018; two sided t-test; n=12 mice), d Immunohistochemical analysis of p21 expression in xenograft tumours following 35 days of treatment with Jak2 inhibitor AZD1480 or vehicle. Scale bar=100 μm. e RT-qPCR expression analysis for SOCS3, p21 and CYCLIN D1 in SW480 xenografts from FIG. 5a and b (p=0.04; n=3 mice). One flank of female BALB/c nude mice was injected subcutaneously with 2×10^6 SW480 cells resuspended in Matrigel (BD Biosciences)/PBS (1:1) at a final volume of 200 μl. Once tumor became palpable (>100 mm^3) approximately 5 days later, mice received continuous daily gavage of the Jak2 inhibitor AZD1480 ([…] et al., 2009) (30 mg/kg, a gift from Astra-Zeneca). Gene expression analysis by RT-qPCR was performed using the SybrGreen method (ABI) as described previously ([…] et al., 2008). Fold change was calculated using the 2^-ΔΔCT method (Livak et al., 2001). Protein expression was analysed by Western blot by transferring SDS-PAGE separated protein lysates to nitrocellulose membrane and blocked either in 5% non-fat milk powder and probed with antibodies detecting p16 (Santa Cruz; #sc-467), Bmi1 (Millipore #[…]), Actin (Sigma; #A2066) or Gapdh (Santa Cruz; #sc-69778). All antibodies were diluted 1:1000 in BSA or non-fat milk powder and incubations were performed overnight. Tissues were fixed and immunohistochemistry performed as described previously (Sansom et al., 2007). Primary antibodies used were rabbit phospho-Stat3 to Tyr705 (Santa Cruz #9134s, 1:150), mouse β-catenin (Transduction Laboratories, 1:300), rabbit PCNA (Santa Cruz #7907, 1:100), rabbit […] (Santa Cruz N-262. Lot #C1309, 1:200), and goat p21 (Santa Cruz #Sc-397-G; 1:100).

RKO cells = assay: RKO tumor xenografts; format: in vivo; conditions: RKO (low Wnt signaling), BALB/c nude mice, daily gavage 30 mg/kg from day 7
Procedure: c, d Tumour xenograft burden in BALB/c nude mice injected s.c. with DLD1 cells or RKO cells in PBS and receiving daily gavage with AZD1480 (30 mg/kg) or vehicle starting on the 7th day after cell inoculation. (*p≦0.0004; two sided t-test; n=8).

Cc1cc(Nc2nc(N[C@@H](C)c3ncc(F)cn3)ncc2Cl)n[nH]1 [AZD1480]
colony formation in soft agar (SW480 cells [1]): strongly impaired
growth and de novo tumour formation (intestinal tumours): profoundly reduced
growth of established SW480 tumours (SW480 cells [2]; BALB/c nude mice, s.c., daily gavage 30 mg/kg from day 5): reduced the growth
CYCLIND1 expression (RT-qPCR) (SW480 cells [2]; RNA from SW480 xenografts): decrease
SOCS3 expression (RT-qPCR) (SW480 cells [2]; RNA from SW480 xenografts): decrease
p21 expression (RT-qPCR) (SW480 cells [2]; RNA from SW480 xenografts): increased
p21 expression in tumours (immunohistochemistry) (SW480 cells [2]; SW480 xenografts, 35 days of treatment, vs vehicle): increased
xenograft tumor growth (RKO cells): did not result in reduced tumor growth

From patent publication US20160045498A1, “METHODS OF TREATING DISEASES CHARACTERIZED BY EXCESSIVE WNT SIGNALLING” (THE WALTER AND ELIZA HALL INSTITUTE OF MEDICAL RESEARCH, priority 2013, published 2016)
